{
  "source": "the kinase profiling compilation of Christmann-Franck et al. (2016)",
  "assay_in_all_cases": "radiometric filter-binding kinase assay, Kinase HotSpot",
  "settings_in_all_cases": "compound 0.5 µM; ATP 10 µM",
  "key": {"PASK (human)": {"molecular_target": "PASK (human) (UniProt Q96RG2)", "sequence (Q96RG2 whole entry, looked up)": "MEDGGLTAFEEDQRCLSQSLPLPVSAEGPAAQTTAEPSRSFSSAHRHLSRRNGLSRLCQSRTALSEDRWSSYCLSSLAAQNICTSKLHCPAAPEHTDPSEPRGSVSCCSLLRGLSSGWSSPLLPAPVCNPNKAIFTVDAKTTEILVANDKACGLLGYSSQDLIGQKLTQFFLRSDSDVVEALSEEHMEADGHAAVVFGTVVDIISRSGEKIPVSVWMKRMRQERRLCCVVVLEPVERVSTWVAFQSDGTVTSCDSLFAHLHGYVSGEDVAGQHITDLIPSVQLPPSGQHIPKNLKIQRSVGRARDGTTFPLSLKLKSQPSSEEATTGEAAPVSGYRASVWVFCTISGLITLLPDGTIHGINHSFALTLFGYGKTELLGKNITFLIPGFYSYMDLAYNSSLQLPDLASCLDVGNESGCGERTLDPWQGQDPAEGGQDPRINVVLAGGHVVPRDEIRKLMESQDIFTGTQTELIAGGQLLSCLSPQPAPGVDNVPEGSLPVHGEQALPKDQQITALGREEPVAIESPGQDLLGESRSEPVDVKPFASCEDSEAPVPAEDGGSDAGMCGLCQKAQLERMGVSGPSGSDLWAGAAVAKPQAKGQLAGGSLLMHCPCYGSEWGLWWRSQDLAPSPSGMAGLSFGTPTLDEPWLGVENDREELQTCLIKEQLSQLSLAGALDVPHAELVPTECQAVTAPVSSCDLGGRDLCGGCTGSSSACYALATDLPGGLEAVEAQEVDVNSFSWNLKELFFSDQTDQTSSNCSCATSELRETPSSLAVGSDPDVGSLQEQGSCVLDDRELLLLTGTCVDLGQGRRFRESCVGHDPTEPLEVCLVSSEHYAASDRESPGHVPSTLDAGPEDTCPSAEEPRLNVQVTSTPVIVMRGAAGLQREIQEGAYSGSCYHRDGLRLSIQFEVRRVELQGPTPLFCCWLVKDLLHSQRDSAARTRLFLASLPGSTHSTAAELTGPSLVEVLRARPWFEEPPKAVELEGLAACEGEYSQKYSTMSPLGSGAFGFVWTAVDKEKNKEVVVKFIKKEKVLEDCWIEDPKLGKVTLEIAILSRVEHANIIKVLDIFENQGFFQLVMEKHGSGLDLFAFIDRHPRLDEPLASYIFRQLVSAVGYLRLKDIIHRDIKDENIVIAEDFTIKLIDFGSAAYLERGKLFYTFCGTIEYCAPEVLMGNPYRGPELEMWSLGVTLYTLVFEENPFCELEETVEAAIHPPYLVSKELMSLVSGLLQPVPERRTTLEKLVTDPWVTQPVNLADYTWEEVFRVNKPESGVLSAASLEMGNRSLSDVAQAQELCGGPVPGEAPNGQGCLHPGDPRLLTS"}, "EPHA1 (human)": {"molecular_target": "EPHA1 (human) (UniProt P21709)"}, "STK24 (human)": {"molecular_target": "STK24 (human) (UniProt Q9Y6E0)"}, "ALK (human)": {"molecular_target": "ALK (human) (UniProt Q9UM73)"}, "PRKCE (human)": {"molecular_target": "PRKCE (human) (UniProt Q02156)"}, "FLT3 (human)": {"molecular_target": "FLT3 (human) (UniProt P36888)"}, "PRKD1 (human)": {"molecular_target": "PRKD1 (human) (UniProt Q15139)"}, "PLK2 (human)": {"molecular_target": "PLK2 (human) (UniProt Q9NYY3)"}, "CSNK2A2 (human)": {"molecular_target": "CSNK2A2 (human) (UniProt P19784)"}, "DSTYK (human)": {"molecular_target": "DSTYK (human) (UniProt Q6XUX3)", "sequence (Q6XUX3 whole entry, looked up)": "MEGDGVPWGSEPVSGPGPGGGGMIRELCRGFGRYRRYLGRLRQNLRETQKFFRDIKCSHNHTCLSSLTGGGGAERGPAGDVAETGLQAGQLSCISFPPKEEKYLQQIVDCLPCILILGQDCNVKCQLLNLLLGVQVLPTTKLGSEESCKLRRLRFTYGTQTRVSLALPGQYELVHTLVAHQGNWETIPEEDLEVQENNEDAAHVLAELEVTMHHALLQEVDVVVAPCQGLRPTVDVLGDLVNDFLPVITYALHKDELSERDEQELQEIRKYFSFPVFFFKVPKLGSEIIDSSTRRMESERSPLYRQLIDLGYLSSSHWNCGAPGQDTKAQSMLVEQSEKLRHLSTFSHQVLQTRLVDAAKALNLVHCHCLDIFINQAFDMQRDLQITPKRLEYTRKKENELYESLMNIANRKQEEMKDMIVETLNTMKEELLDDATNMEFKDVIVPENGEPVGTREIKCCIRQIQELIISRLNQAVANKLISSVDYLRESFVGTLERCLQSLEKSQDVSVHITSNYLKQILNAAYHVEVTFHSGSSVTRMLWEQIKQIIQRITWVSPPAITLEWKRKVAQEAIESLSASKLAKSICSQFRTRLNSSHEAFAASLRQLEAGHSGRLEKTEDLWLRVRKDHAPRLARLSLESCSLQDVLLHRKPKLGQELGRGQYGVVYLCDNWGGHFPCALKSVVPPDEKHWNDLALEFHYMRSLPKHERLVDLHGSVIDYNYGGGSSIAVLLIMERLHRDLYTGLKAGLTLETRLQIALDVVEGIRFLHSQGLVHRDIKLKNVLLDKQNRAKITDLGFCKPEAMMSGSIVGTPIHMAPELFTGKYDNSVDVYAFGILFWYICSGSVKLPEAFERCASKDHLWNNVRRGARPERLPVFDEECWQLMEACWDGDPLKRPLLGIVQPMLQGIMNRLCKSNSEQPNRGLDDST"}, "MAP2K2 (human)": {"molecular_target": "MAP2K2 (human) (UniProt P36507)"}, "DYRK1A (human)": {"molecular_target": "DYRK1A (human) (UniProt Q13627)"}, "MAP3K14 (human)": {"molecular_target": "MAP3K14 (human) (UniProt Q99558)", "sequence (Q99558 whole entry, looked up)": "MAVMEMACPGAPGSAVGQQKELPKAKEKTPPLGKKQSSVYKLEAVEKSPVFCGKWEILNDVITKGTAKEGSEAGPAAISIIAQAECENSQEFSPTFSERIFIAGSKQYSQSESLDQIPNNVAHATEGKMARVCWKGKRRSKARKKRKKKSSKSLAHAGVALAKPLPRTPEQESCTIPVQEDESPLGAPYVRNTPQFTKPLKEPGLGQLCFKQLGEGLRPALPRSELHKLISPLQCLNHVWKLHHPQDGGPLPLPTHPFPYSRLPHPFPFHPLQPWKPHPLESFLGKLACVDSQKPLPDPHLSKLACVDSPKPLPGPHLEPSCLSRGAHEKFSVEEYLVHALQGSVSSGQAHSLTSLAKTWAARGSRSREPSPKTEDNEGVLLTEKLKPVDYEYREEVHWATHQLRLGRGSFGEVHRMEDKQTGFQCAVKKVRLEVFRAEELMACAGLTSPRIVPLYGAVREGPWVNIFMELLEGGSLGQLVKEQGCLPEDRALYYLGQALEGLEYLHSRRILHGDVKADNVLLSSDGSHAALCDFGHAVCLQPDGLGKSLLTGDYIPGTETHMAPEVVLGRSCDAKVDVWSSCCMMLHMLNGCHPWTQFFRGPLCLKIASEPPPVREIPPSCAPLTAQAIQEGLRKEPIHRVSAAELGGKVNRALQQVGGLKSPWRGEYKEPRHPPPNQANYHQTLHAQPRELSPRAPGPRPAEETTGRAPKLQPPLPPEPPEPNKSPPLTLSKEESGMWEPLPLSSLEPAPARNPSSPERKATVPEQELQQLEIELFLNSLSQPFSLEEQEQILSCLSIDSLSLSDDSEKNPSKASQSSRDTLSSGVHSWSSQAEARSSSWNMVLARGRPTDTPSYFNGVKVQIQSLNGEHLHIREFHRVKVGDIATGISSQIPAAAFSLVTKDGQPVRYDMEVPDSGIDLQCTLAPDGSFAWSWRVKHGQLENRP"}, "PRKACA (human)": {"molecular_target": "PRKACA (human) (UniProt P17612)"}, "ABL2 (human)": {"molecular_target": "ABL2 (human) (UniProt P42684)"}, "SIK2 (human)": {"molecular_target": "SIK2 (human) (UniProt Q9H0K1)"}, "MST1R (human)": {"molecular_target": "MST1R (human) (UniProt Q04912)"}, "LTK (human)": {"molecular_target": "LTK (human) (UniProt P29376)"}, "HIPK2 (human)": {"molecular_target": "HIPK2 (human) (UniProt Q9H2X6)"}, "MYLK (human)": {"molecular_target": "MYLK (human) (UniProt Q15746)"}, "STK16 (human)": {"molecular_target": "STK16 (human) (UniProt O75716)", "sequence (O75716 whole entry, looked up)": "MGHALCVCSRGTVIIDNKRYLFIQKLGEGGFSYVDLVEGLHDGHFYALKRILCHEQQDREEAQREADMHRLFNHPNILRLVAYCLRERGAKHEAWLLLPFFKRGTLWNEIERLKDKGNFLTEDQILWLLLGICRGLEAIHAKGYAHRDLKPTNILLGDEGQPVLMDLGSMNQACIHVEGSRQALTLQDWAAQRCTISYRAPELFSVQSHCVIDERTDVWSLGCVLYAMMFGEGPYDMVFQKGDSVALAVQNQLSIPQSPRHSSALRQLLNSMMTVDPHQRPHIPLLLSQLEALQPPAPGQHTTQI"}, "DCLK2 (human)": {"molecular_target": "DCLK2 (human) (UniProt Q8N568)"}, "JAK2 JH1 JH2 (human)": {"molecular_target": "JAK2 JH1 JH2 (human) (UniProt O60674)"}, "SLK (human)": {"molecular_target": "SLK (human) (UniProt Q9H2G2)"}, "FGR (human)": {"molecular_target": "FGR (human) (UniProt P09769)"}, "TAOK2 (human)": {"molecular_target": "TAOK2 (human) (UniProt Q9UL54)"}, "KIT (human)": {"molecular_target": "KIT (human) (UniProt P10721)", "sequence (P10721 whole entry, looked up)": "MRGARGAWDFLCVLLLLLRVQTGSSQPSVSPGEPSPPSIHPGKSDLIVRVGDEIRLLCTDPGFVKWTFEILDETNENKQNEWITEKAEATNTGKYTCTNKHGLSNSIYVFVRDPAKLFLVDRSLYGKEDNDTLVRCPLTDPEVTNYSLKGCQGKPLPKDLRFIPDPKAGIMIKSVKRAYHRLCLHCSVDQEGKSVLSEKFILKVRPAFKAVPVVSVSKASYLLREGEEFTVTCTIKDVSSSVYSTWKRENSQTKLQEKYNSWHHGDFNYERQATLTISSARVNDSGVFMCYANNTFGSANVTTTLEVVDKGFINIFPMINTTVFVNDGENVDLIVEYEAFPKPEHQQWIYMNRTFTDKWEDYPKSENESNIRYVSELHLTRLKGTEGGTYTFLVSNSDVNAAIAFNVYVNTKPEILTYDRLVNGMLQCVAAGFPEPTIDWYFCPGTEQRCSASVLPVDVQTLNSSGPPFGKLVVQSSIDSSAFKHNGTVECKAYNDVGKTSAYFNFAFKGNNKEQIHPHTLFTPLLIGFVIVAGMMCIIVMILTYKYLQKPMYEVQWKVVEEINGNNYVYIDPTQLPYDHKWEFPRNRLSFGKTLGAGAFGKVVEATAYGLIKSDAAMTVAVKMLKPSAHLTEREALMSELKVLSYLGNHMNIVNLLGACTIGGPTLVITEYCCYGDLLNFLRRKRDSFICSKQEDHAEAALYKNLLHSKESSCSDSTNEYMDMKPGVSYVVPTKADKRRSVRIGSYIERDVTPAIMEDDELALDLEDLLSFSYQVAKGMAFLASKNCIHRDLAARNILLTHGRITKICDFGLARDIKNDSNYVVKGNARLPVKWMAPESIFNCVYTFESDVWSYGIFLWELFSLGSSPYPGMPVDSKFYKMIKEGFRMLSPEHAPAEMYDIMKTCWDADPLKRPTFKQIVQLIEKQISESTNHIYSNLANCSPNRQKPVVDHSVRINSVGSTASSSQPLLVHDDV"}, "AURKB (human)": {"molecular_target": "AURKB (human) (UniProt Q96GD4)"}, "TNK2 (human)": {"molecular_target": "TNK2 (human) (UniProt Q07912)"}, "FGFR2 (human)": {"molecular_target": "FGFR2 (human) (UniProt P21802)"}, "TAOK3 (human)": {"molecular_target": "TAOK3 (human) (UniProt Q9H2K8)"}, "DDR2 (human)": {"molecular_target": "DDR2 (human) (UniProt Q16832)"}, "AURKC (human)": {"molecular_target": "AURKC (human) (UniProt Q9UQB9)"}, "SRPK2 (human)": {"molecular_target": "SRPK2 (human) (UniProt P78362)"}, "CAMK2A (human)": {"molecular_target": "CAMK2A (human) (UniProt Q9UQM7)"}, "OXSR1 (human)": {"molecular_target": "OXSR1 (human) (UniProt O95747)"}, "CLK2 (human)": {"molecular_target": "CLK2 (human) (UniProt P49760)", "sequence (P49760 whole entry, looked up)": "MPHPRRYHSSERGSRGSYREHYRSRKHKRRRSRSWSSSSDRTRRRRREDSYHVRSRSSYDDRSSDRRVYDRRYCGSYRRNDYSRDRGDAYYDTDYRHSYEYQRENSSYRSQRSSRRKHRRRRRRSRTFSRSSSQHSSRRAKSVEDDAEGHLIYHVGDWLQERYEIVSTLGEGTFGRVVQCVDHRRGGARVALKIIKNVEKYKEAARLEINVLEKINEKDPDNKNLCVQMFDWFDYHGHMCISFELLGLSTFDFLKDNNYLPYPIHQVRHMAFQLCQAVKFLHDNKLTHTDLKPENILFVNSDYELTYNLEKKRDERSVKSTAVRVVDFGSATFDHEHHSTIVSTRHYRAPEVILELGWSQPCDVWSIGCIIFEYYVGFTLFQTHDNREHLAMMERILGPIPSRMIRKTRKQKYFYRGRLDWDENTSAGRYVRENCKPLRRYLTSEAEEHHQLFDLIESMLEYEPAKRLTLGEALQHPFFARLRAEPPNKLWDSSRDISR"}, "CAMKK1 (human)": {"molecular_target": "CAMKK1 (human) (UniProt Q8N5S9)"}, "CSNK1G3 (human)": {"molecular_target": "CSNK1G3 (human) (UniProt Q9Y6M4)"}, "MAPK9 (human)": {"molecular_target": "MAPK9 (human) (UniProt P45984)"}, "TYRO3 (human)": {"molecular_target": "TYRO3 (human) (UniProt Q06418)"}, "CDK7 CCNH MNAT1 (human)": {"molecular_target": "CDK7 CCNH MNAT1 (human) (UniProt P50613+P51948+P51946)"}},
  "data": [
    {"smiles": "NC(=O)c1cccc(-c2cc(Nc3ccc(OC(F)(F)F)cc3)ncn2)c1", "values": [
      {"measurement": "residual activity", "setting": "PASK (human)", "result": 100, "unit": "%"},
      {"measurement": "residual activity", "setting": "EPHA1 (human)", "result": 90.1, "unit": "%"},
      {"measurement": "residual activity", "setting": "STK24 (human)", "result": 89.5, "unit": "%"},
      {"measurement": "residual activity", "setting": "ALK (human)", "result": 103, "unit": "%"},
      {"measurement": "residual activity", "setting": "PRKCE (human)", "result": 111, "unit": "%"},
      {"measurement": "residual activity", "setting": "FLT3 (human)", "result": 98.9, "unit": "%"},
      {"measurement": "residual activity", "setting": "PRKD1 (human)", "result": 99.5, "unit": "%"},
      {"measurement": "residual activity", "setting": "PLK2 (human)", "result": 98, "unit": "%"},
      {"measurement": "residual activity", "setting": "CSNK2A2 (human)", "result": 92.7, "unit": "%"},
      {"measurement": "residual activity", "setting": "DSTYK (human)", "result": 95.8, "unit": "%"},
      {"measurement": "residual activity", "setting": "MAP2K2 (human)", "result": 92.5, "unit": "%"},
      {"measurement": "residual activity", "setting": "DYRK1A (human)", "result": 101, "unit": "%"},
      {"measurement": "residual activity", "setting": "MAP3K14 (human)", "result": 103, "unit": "%"},
      {"measurement": "residual activity", "setting": "PRKACA (human)", "result": 94.2, "unit": "%"},
      {"measurement": "residual activity", "setting": "ABL2 (human)", "result": 106, "unit": "%"},
      {"measurement": "residual activity", "setting": "SIK2 (human)", "result": 108, "unit": "%"},
      {"measurement": "residual activity", "setting": "MST1R (human)", "result": 111, "unit": "%"},
      {"measurement": "residual activity", "setting": "LTK (human)", "result": 111, "unit": "%"},
      {"measurement": "residual activity", "setting": "HIPK2 (human)", "result": 102, "unit": "%"},
      {"measurement": "residual activity", "setting": "MYLK (human)", "result": 91.9, "unit": "%"},
      {"measurement": "residual activity", "setting": "STK16 (human)", "result": 81.8, "unit": "%"},
      {"measurement": "residual activity", "setting": "DCLK2 (human)", "result": 104, "unit": "%"},
      {"measurement": "residual activity", "setting": "JAK2 JH1 JH2 (human)", "result": 104, "unit": "%"},
      {"measurement": "residual activity", "setting": "SLK (human)", "result": 98.2, "unit": "%"},
      {"measurement": "residual activity", "setting": "FGR (human)", "result": 96.8, "unit": "%"},
      {"measurement": "residual activity", "setting": "TAOK2 (human)", "result": 91, "unit": "%"},
      {"measurement": "residual activity", "setting": "KIT (human)", "result": 100, "unit": "%"},
      {"measurement": "residual activity", "setting": "AURKB (human)", "result": 96.9, "unit": "%"},
      {"measurement": "residual activity", "setting": "TNK2 (human)", "result": 98.5, "unit": "%"},
      {"measurement": "residual activity", "setting": "FGFR2 (human)", "result": 95.9, "unit": "%"},
      {"measurement": "residual activity", "setting": "TAOK3 (human)", "result": 107, "unit": "%"},
      {"measurement": "residual activity", "setting": "DDR2 (human)", "result": 108, "unit": "%"},
      {"measurement": "residual activity", "setting": "AURKC (human)", "result": 101, "unit": "%"},
      {"measurement": "residual activity", "setting": "SRPK2 (human)", "result": 105, "unit": "%"},
      {"measurement": "residual activity", "setting": "CAMK2A (human)", "result": 102, "unit": "%"},
      {"measurement": "residual activity", "setting": "OXSR1 (human)", "result": 97.9, "unit": "%"},
      {"measurement": "residual activity", "setting": "CLK2 (human)", "result": 93.1, "unit": "%"},
      {"measurement": "residual activity", "setting": "CAMKK1 (human)", "result": 103, "unit": "%"},
      {"measurement": "residual activity", "setting": "CSNK1G3 (human)", "result": 93.4, "unit": "%"}
    ]},
    {"smiles": "Cn1c2ccccc2c2c3c(c4c5ccccc5n(CCC#N)c4c21)CNC3=O", "values": [
      {"measurement": "residual activity", "setting": "PASK (human)", "result": 84.3, "unit": "%"},
      {"measurement": "residual activity", "setting": "EPHA1 (human)", "result": 81.6, "unit": "%"},
      {"measurement": "residual activity", "setting": "STK24 (human)", "result": 62.8, "unit": "%"},
      {"measurement": "residual activity", "setting": "ALK (human)", "result": 12.2, "unit": "%"},
      {"measurement": "residual activity", "setting": "PRKCE (human)", "result": 58.5, "unit": "%"},
      {"measurement": "residual activity", "setting": "FLT3 (human)", "result": 5.27, "unit": "%"},
      {"measurement": "residual activity", "setting": "PRKD1 (human)", "result": 17.3, "unit": "%"},
      {"measurement": "residual activity", "setting": "PLK2 (human)", "result": 105, "unit": "%"},
      {"measurement": "residual activity", "setting": "CSNK2A2 (human)", "result": 104, "unit": "%"},
      {"measurement": "residual activity", "setting": "DSTYK (human)", "result": 9.91, "unit": "%"},
      {"measurement": "residual activity", "setting": "MAP2K2 (human)", "result": 92.5, "unit": "%"},
      {"measurement": "residual activity", "setting": "DYRK1A (human)", "result": 46.3, "unit": "%"},
      {"measurement": "residual activity", "setting": "MAP3K14 (human)", "result": 84.1, "unit": "%"},
      {"measurement": "residual activity", "setting": "PRKACA (human)", "result": 83.7, "unit": "%"},
      {"measurement": "residual activity", "setting": "ABL2 (human)", "result": 42.3, "unit": "%"},
      {"measurement": "residual activity", "setting": "SIK2 (human)", "result": 54.5, "unit": "%"},
      {"measurement": "residual activity", "setting": "MST1R (human)", "result": 111, "unit": "%"},
      {"measurement": "residual activity", "setting": "LTK (human)", "result": 8.79, "unit": "%"},
      {"measurement": "residual activity", "setting": "HIPK2 (human)", "result": 97.8, "unit": "%"},
      {"measurement": "residual activity", "setting": "MYLK (human)", "result": 24.6, "unit": "%"},
      {"measurement": "residual activity", "setting": "STK16 (human)", "result": 81.1, "unit": "%"},
      {"measurement": "residual activity", "setting": "DCLK2 (human)", "result": 84.7, "unit": "%"},
      {"measurement": "residual activity", "setting": "JAK2 JH1 JH2 (human)", "result": 5.58, "unit": "%"},
      {"measurement": "residual activity", "setting": "MAPK9 (human)", "result": 86, "unit": "%"},
      {"measurement": "residual activity", "setting": "SLK (human)", "result": 34.1, "unit": "%"},
      {"measurement": "residual activity", "setting": "FGR (human)", "result": 70.7, "unit": "%"},
      {"measurement": "residual activity", "setting": "TAOK2 (human)", "result": 13.3, "unit": "%"},
      {"measurement": "residual activity", "setting": "KIT (human)", "result": 96.9, "unit": "%"},
      {"measurement": "residual activity", "setting": "AURKB (human)", "result": 33.1, "unit": "%"},
      {"measurement": "residual activity", "setting": "TNK2 (human)", "result": 2.78, "unit": "%"},
      {"measurement": "residual activity", "setting": "TYRO3 (human)", "result": 85.6, "unit": "%"},
      {"measurement": "residual activity", "setting": "CDK7 CCNH MNAT1 (human)", "result": 84.6, "unit": "%"},
      {"measurement": "residual activity", "setting": "FGFR2 (human)", "result": 79.8, "unit": "%"},
      {"measurement": "residual activity", "setting": "DDR2 (human)", "result": 73.3, "unit": "%"},
      {"measurement": "residual activity", "setting": "AURKC (human)", "result": 55.7, "unit": "%"},
      {"measurement": "residual activity", "setting": "SRPK2 (human)", "result": 95, "unit": "%"},
      {"measurement": "residual activity", "setting": "CAMK2A (human)", "result": 19.1, "unit": "%"},
      {"measurement": "residual activity", "setting": "OXSR1 (human)", "result": 102, "unit": "%"},
      {"measurement": "residual activity", "setting": "CLK2 (human)", "result": 88.7, "unit": "%"},
      {"measurement": "residual activity", "setting": "CAMKK1 (human)", "result": 19.3, "unit": "%"},
      {"measurement": "residual activity", "setting": "CSNK1G3 (human)", "result": 137, "unit": "%"}
    ]}
  ]
}
